Test in all cases: cell-based
One experiment deals with hNav1.5 (Homo sapiens, UniProt Q14524).
In the next experiment the target is hNav1.7 (Homo sapiens, UniProt Q15858). The format is cell-based.
A further experiment concerns the target hNav1.3 (Homo sapiens, UniProt Q9NY46).
Where [1] appears, read: IonWorks Quattro, Use, read-out: IWQ Use Nav1.5.
The mark [2] stands for this setting: IonWorks Quattro, Use, read-out: IWQ Use Nav1.3.

Read-outs that look alike come from different tables or passages of the source. Positions of bridges follow the written chain, without caps; N, C: chain ends. Residues, ends and D or L forms follow the SMILES beside them.

Sequence of hNav1.5 (Q14524 whole entry, looked up): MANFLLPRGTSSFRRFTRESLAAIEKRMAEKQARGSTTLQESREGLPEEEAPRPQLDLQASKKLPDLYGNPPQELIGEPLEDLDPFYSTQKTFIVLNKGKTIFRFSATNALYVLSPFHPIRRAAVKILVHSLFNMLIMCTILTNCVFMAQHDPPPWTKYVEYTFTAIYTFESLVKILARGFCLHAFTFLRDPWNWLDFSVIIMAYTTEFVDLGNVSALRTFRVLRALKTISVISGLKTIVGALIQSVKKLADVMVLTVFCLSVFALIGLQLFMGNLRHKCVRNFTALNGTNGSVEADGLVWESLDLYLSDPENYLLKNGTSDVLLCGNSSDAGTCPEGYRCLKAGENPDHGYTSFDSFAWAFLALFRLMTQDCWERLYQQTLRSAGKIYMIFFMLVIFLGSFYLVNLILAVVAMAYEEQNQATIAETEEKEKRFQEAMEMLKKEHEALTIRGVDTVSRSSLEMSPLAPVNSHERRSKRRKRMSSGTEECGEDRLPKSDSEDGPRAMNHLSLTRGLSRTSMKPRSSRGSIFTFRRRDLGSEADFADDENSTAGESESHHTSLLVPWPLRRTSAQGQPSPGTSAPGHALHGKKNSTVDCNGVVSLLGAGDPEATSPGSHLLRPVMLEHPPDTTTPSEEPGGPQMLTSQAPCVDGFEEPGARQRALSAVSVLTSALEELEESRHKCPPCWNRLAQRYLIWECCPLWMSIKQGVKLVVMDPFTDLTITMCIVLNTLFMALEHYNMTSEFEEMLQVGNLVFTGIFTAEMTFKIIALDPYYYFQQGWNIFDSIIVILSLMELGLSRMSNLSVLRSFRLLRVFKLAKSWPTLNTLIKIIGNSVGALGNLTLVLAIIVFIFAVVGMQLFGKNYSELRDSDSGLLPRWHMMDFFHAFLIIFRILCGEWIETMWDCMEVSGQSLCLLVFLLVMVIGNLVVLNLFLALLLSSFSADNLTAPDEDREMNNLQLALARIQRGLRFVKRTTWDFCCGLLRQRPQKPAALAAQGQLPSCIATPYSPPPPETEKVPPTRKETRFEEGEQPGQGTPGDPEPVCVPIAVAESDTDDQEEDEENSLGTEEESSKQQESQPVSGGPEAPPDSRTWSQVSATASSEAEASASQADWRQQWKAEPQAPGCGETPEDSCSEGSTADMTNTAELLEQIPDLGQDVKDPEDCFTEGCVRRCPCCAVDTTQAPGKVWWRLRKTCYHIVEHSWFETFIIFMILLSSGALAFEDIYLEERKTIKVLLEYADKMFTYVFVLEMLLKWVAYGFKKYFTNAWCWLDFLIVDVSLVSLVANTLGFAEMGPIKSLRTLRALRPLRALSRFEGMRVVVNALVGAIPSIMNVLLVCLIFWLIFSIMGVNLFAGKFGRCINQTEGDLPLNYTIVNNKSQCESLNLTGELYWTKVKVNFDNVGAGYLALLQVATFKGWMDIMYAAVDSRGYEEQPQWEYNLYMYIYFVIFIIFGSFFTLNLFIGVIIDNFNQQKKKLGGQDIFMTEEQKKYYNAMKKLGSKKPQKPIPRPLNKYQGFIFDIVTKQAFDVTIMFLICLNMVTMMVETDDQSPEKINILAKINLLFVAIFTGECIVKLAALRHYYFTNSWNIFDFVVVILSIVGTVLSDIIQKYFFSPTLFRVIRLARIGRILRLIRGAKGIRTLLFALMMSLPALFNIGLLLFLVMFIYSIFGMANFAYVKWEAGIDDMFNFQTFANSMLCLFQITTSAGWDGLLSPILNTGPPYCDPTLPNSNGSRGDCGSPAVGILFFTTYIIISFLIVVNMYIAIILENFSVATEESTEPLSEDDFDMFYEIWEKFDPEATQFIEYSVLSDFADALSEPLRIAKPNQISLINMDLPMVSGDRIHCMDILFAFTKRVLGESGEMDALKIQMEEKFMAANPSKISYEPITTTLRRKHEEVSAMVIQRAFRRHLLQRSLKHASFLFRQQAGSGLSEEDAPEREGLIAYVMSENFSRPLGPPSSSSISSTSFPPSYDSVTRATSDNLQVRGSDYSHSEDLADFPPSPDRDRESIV
Sequence of hNav1.7 (Q15858 whole entry, looked up): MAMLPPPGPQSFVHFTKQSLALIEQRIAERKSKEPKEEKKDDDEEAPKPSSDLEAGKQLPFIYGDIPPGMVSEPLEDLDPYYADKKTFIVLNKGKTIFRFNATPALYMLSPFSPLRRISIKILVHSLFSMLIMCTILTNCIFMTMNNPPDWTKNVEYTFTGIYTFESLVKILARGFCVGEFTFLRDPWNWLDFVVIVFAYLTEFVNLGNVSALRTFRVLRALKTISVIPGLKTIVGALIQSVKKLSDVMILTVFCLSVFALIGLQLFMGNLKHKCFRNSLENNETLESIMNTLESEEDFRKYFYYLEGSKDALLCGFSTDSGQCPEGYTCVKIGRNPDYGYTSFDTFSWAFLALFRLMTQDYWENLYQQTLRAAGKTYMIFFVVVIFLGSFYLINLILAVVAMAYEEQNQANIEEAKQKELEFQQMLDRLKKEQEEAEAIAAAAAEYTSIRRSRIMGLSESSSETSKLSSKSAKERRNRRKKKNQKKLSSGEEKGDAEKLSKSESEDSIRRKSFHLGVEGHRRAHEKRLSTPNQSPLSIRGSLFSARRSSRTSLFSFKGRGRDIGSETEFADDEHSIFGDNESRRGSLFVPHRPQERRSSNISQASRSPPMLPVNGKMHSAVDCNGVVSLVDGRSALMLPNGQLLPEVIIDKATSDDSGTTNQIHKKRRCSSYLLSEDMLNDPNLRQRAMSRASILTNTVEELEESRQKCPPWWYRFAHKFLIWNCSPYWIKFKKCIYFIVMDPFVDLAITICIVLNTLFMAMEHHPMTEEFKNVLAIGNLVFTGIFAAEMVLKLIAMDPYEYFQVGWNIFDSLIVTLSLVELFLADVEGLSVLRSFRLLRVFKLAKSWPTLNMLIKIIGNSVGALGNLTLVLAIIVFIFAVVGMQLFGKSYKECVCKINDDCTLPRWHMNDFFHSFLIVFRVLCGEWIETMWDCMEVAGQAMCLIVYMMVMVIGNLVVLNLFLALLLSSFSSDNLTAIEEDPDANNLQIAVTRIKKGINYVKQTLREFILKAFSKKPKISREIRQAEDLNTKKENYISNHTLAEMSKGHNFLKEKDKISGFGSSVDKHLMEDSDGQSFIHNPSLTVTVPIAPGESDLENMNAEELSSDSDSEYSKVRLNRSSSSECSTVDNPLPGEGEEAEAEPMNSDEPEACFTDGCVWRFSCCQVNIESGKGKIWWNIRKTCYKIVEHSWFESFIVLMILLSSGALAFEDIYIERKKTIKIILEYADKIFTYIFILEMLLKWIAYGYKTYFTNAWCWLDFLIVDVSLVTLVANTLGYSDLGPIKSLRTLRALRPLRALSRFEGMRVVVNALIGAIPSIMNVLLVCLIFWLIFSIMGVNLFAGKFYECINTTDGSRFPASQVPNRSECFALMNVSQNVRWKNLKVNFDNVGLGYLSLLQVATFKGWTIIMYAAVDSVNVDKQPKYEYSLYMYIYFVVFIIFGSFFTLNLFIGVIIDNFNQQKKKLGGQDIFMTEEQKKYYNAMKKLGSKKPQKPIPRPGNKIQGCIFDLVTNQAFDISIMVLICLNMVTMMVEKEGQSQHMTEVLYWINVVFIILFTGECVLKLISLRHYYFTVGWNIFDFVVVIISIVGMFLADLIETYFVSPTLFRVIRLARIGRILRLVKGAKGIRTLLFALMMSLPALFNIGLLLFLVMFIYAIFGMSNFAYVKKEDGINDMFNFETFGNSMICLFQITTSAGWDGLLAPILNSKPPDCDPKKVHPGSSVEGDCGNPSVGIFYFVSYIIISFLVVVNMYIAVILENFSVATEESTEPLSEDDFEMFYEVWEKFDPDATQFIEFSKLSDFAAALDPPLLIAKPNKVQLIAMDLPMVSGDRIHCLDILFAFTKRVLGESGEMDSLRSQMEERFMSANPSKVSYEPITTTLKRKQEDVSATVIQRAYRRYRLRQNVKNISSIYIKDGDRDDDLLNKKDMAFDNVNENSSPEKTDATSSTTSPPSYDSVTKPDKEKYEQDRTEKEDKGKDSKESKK

With `CC[C@H](C)[C@@H]1NC(=O)[C@@H]2CSSC[C@@H]3NC(=O)[C@H](C(C)C)NC(=O)[C@H](CC(C)C)NC(=O)[C@H](CC(N)=O)NC(=O)[C@@H]4CCCN4C(=O)[C@H](CCCCN)NC(=O)[C@H](CSSC[C@H](NC(=O)[C@@H](N)CC(=O)O)C(=O)N[C@@H](CC(C)C)C(=O)NCC(=O)N[C@@H](Cc4ccccc4)C(=O)N[C@@H](CCSC)C(=O)N[C@@H](CCCNC(=N)N)C(=O)N[C@@H](CCCCN)C(=O)N2)NC(=O)[C@H](CSSC[C@@H](C(=O)N[C@@H](CCCCN)C(=O)N[C@@H](Cc2ccc(O)cc2)C(=O)N[C@H](C(=O)N[C@@H](Cc2ccccc2)C(N)=O)C(C)C)NC(=O)[C@H](Cc2c[nH]c4ccccc24)NC(=O)[C@H](CCCCN)NC(=O)[C@H](Cc2cnc[nH]2)NC(=O)[C@H]([C@@H](C)O)NC(=O)[C@H](CCCNC(=N)N)NC(=O)[C@H](CO)NC3=O)NC(=O)[C@H](CCCCN)NC(=O)[C@H](CC(=O)O)NC(=O)[C@H](CC(N)=O)NC(=O)[C@H](CC(=O)O)NC(=O)[C@@H]2CCCN2C1=O` [compound 49] (H-DCLGFMRKCIPDNDKCCKPNLVCSRTHKWCKYVF-NH2; disulfide 2-17, 9-23, 16-30), the IC50 on hNav1.5 (setting [1]) is 17.6 µM; at hNav1.7, 0.3 µM; at hNav1.3 (setting [2]), 0.21 µM.

Turning to `CC[C@H](C)[C@@H]1NC(=O)[C@@H]2CSSC[C@@H]3NC(=O)[C@H](C(C)C)NC(=O)[C@H](CC(C)C)NC(=O)[C@H](CCCCN)NC(=O)[C@@H]4CCCN4C(=O)[C@H](CCCNC(=N)N)NC(=O)[C@H](CSSC[C@H](NC(=O)[C@@H](N)CC(=O)O)C(=O)N[C@@H](CC(C)C)C(=O)NCC(=O)N[C@@H](Cc4ccccc4)C(=O)N[C@@H](CCSC)C(=O)N[C@@H](CCCNC(=N)N)C(=O)N[C@@H](CCCCN)C(=O)N2)NC(=O)[C@H](CSSC[C@@H](C(=O)N[C@@H](CCCCN)C(=O)N[C@@H](Cc2ccc(O)cc2)C(=O)N[C@H](C(=O)N[C@@H](Cc2ccccc2)C(N)=O)C(C)C)NC(=O)[C@H](Cc2c[nH]c4ccccc24)NC(=O)[C@H](CCCCN)NC(=O)[C@H](Cc2cnc[nH]2)NC(=O)[C@H]([C@@H](C)O)NC(=O)[C@H](CCCNC(=N)N)NC(=O)[C@H](CO)NC3=O)NC(=O)[C@H](CCCCN)NC(=O)[C@H](CC(=O)O)NC(=O)[C@H](CC(N)=O)NC(=O)[C@H](CC(=O)O)NC(=O)[C@@H]2CCCN2C1=O` [compound 51] (H-DCLGFMRKCIPDNDKCCRPKLVCSRTHKWCKYVF-NH2; disulfide 2-17, 9-23, 16-30), the IC50 at hNav1.5 (setting [1]) was 19 µM; on hNav1.7 (IonWorks Quattro, Use, read-out: IWQ Use Nav1.7), 0.61 µM; at hNav1.3 (setting [2]), 0.33 µM.

As for `CC[C@H](C)[C@@H]1NC(=O)[C@@H]2CSSC[C@@H]3NC(=O)[C@H](CCCCN)NC(=O)[C@H](CC(C)C)NC(=O)[C@H](CC(N)=O)NC(=O)[C@@H]4CCCN4C(=O)[C@H](CCCNC(=N)N)NC(=O)[C@H](CSSC[C@H](NC(=O)[C@@H](N)CC(=O)O)C(=O)N[C@@H](CC(C)C)C(=O)NCC(=O)N[C@@H](Cc4ccccc4)C(=O)N[C@@H](CCSC)C(=O)N[C@@H](CCCNC(=N)N)C(=O)N[C@@H](CCCCN)C(=O)N2)NC(=O)[C@H](CSSC[C@@H](C(=O)N[C@@H](CCCCN)C(=O)N[C@@H](Cc2ccc(O)cc2)C(=O)N[C@H](C(=O)N[C@@H](Cc2ccccc2)C(N)=O)C(C)C)NC(=O)[C@H](Cc2c[nH]c4ccccc24)NC(=O)[C@H](CCCCN)NC(=O)[C@H](Cc2cnc[nH]2)NC(=O)[C@H]([C@@H](C)O)NC(=O)[C@H](CCCNC(=N)N)NC(=O)[C@H](CO)NC3=O)NC(=O)[C@H](CCCCN)NC(=O)[C@H](CC(=O)O)NC(=O)[C@H](CC(N)=O)NC(=O)[C@H](CC(=O)O)NC(=O)[C@@H]2CCCN2C1=O` [compound 52] (H-DCLGFMRKCIPDNDKCCRPNLKCSRTHKWCKYVF-NH2; disulfide 2-17, 9-23, 16-30), the results for the IC50 at hNav1.5 (setting [1]), against hNav1.7 and on hNav1.3 (setting [2]) were 15 µM, 0.19 µM and 0.08 µM, respectively.

For `CC[C@H](C)[C@@H]1NC(=O)[C@@H]2CSSC[C@@H]3NC(=O)[C@H](C(C)C)NC(=O)[C@H](CC(C)C)NC(=O)[C@H](CC(N)=O)NC(=O)[C@@H]4CCCN4C(=O)[C@H](CCCNC(=N)N)NC(=O)[C@H](CSSC[C@H](NC(=O)[C@@H](N)CC(=O)O)C(=O)N[C@@H](CC(C)C)C(=O)NCC(=O)N[C@@H](Cc4ccccc4)C(=O)N[C@@H](CCSC)C(=O)N[C@@H](CCCNC(=N)N)C(=O)N[C@@H](CCCCN)C(=O)N2)NC(=O)[C@H](CSSC[C@@H](C(=O)N[C@@H](CCCCN)C(=O)N[C@@H](Cc2ccc(O)cc2)C(=O)N[C@H](C(=O)N[C@@H](Cc2ccccc2)C(N)=O)C(C)C)NC(=O)[C@H](Cc2c[nH]c4ccccc24)NC(=O)[C@H](CCCCN)NC(=O)[C@H](Cc2cnc[nH]2)NC(=O)[C@H](CCCCN)NC(=O)[C@H](CCCNC(=N)N)NC(=O)[C@H](CO)NC3=O)NC(=O)[C@H](CCCCN)NC(=O)[C@H](CC(=O)O)NC(=O)[C@H](CC(N)=O)NC(=O)[C@H](CC(=O)O)NC(=O)[C@@H]2CCCN2C1=O` [compound 54] (H-DCLGFMRKCIPDNDKCCRPNLVCSRKHKWCKYVF-NH2; disulfide 2-17, 9-23, 16-30), the IC50 on hNav1.5 (Table 22, IonWorks Quattro, use, […], read-out: IWQ Use Nav1.5) came out at 7.96 µM; on hNav1.7 (Table 22, IonWorks Quattro, use, […], read-out: IWQ Use Nav1.7), 0.05 µM; on hNav1.3 (Table 22, IonWorks Quattro, use, […], read-out: IWQ Use Nav1.3), 0.02 µM.

In the case of `CC[C@H](C)[C@@H]1NC(=O)[C@@H]2CSSC[C@@H]3NC(=O)[C@H](C(C)C)NC(=O)[C@H](CC(C)C)NC(=O)[C@H](CC(N)=O)NC(=O)[C@@H]4CCCN4C(=O)[C@H](CCCNC(=N)N)NC(=O)[C@H](CSSC[C@H](NC(=O)[C@@H](N)CC(=O)O)C(=O)N[C@@H](CC(C)C)C(=O)NCC(=O)N[C@@H](Cc4ccccc4)C(=O)N[C@@H](CCSC)C(=O)N[C@@H](CCCNC(=N)N)C(=O)N[C@@H](CCCCN)C(=O)N2)NC(=O)[C@H](CSSC[C@@H](C(=O)N[C@@H](CCCCN)C(=O)N[C@@H](Cc2ccc(O)cc2)C(=O)N[C@H](C(=O)N[C@@H](Cc2ccccc2)C(N)=O)C(C)C)NC(=O)[C@H](Cc2c[nH]c4ccccc24)NC(=O)[C@H](CCCCN)NC(=O)[C@H](CCCCN)NC(=O)[C@H]([C@@H](C)O)NC(=O)[C@H](CCCNC(=N)N)NC(=O)[C@H](CO)NC3=O)NC(=O)[C@H](CCCCN)NC(=O)[C@H](CC(=O)O)NC(=O)[C@H](CC(N)=O)NC(=O)[C@H](CC(=O)O)NC(=O)[C@@H]2CCCN2C1=O` [compound 55] (H-DCLGFMRKCIPDNDKCCRPNLVCSRTKKWCKYVF-NH2; disulfide 2-17, 9-23, 16-30), the IC50 at hNav1.5 (Table 23, IonWorks Quattro, use, […], read-out: IWQ Use Nav1.5) was 11.5 µM; on hNav1.7 (Table 23, IonWorks Quattro, use, […], read-out: IWQ Use Nav1.7), 1.51 µM; on hNav1.3 (Table 23, IonWorks Quattro, use, […], read-out: IWQ Use Nav1.3), 2.48 µM.

As for `CC[C@H](C)[C@@H]1NC(=O)[C@@H]2CSSC[C@@H]3NC(=O)[C@H](C(C)C)NC(=O)[C@H](CC(C)C)NC(=O)[C@H](CC(N)=O)NC(=O)[C@@H]4CCCN4C(=O)[C@H](CCCNC(=N)N)NC(=O)[C@H](CSSC[C@H](NC(=O)[C@@H](N)CC(=O)O)C(=O)N[C@@H](CC(C)C)C(=O)NCC(=O)N[C@@H](Cc4ccccc4)C(=O)N[C@@H](CCSC)C(=O)N[C@@H](CCCNC(=N)N)C(=O)N[C@@H](CCCCN)C(=O)N2)NC(=O)[C@H](CSSC[C@@H](C(=O)N[C@@H](CCCCN)C(=O)N[C@@H](Cc2ccc(O)cc2)C(=O)N[C@H](C(=O)N[C@@H](Cc2ccccc2)C(N)=O)C(C)C)NC(=O)[C@H](CCCCN)NC(=O)[C@H](CCCCN)NC(=O)[C@H](Cc2cnc[nH]2)NC(=O)[C@H]([C@@H](C)O)NC(=O)[C@H](CCCNC(=N)N)NC(=O)[C@H](CO)NC3=O)NC(=O)[C@H](CCCCN)NC(=O)[C@H](CC(=O)O)NC(=O)[C@H](CC(N)=O)NC(=O)[C@H](CC(=O)O)NC(=O)[C@@H]2CCCN2C1=O` [compound 56] (H-DCLGFMRKCIPDNDKCCRPNLVCSRTHKKCKYVF-NH2; disulfide 2-17, 9-23, 16-30), the figures for the IC50 on hNav1.5 (IWQ Use Nav1.5 (μM)), at hNav1.7 and at hNav1.3 were 14.7 µM, 20.1 µM and 24.5 µM, respectively.

Regarding `CC[C@H](C)[C@@H]1NC(=O)[C@@H]2CSSC[C@@H]3NC(=O)[C@H](C(C)C)NC(=O)[C@H](CC(C)C)NC(=O)[C@H](CC(N)=O)NC(=O)[C@@H]4CCCN4C(=O)[C@H](CCCNC(=N)N)NC(=O)[C@H](CSSC[C@H](NC(=O)[C@@H](N)CC(=O)O)C(=O)N[C@@H](CC(C)C)C(=O)NCC(=O)N[C@@H](Cc4ccccc4)C(=O)N[C@@H](CCSC)C(=O)N[C@@H](CCCNC(=N)N)C(=O)N[C@@H](CCCCN)C(=O)N2)NC(=O)[C@H](CSSC[C@@H](C(=O)N[C@@H](CCCCN)C(=O)N[C@@H](CCCCN)C(=O)N[C@H](C(=O)N[C@@H](Cc2ccccc2)C(N)=O)C(C)C)NC(=O)[C@H](Cc2c[nH]c4ccccc24)NC(=O)[C@H](CCCCN)NC(=O)[C@H](Cc2cnc[nH]2)NC(=O)[C@H]([C@@H](C)O)NC(=O)[C@H](CCCNC(=N)N)NC(=O)[C@H](CO)NC3=O)NC(=O)[C@H](CCCCN)NC(=O)[C@H](CC(=O)O)NC(=O)[C@H](CC(N)=O)NC(=O)[C@H](CC(=O)O)NC(=O)[C@@H]2CCCN2C1=O` [compound 57] (H-DCLGFMRKCIPDNDKCCRPNLVCSRTHKWCKKVF-NH2; disulfide 2-17, 9-23, 16-30), the IC50 came out at 10.9 µM on hNav1.5 (Table 25, IonWorks Quattro, use, […], read-out: IWQ Use Nav1.5); 4.96 µM on hNav1.7 (Table 25, IonWorks Quattro, use, […], read-out: IWQ Use Nav1.7); 4.19 µM at hNav1.3 (Table 25, IonWorks Quattro, use, […], read-out: IWQ Use Nav1.3).

The values are drawn from patent US9340590B2 (priority 2011, dated 2016).
